Marks after values point to notes of the source that are not given here.
Assays:
Human IFN-γ = assay: IFN-γ release from stimulated PBMCs, ELISA; type: cell-based; settings: LPS 100 ng/mL, 18 hrs
Protocol: (§1) Fresh human blood from healthy volunteer was collected in anticoagulant (5 mM) ethylene diamine tetra acetic acid (EDTA) containing tubes. The growth medium used was RPMI-1640 medium (with 3% FBS) and incubated at 37° C. for 60 mins in a 5% CO2 incubator with vehicle used as 1% DMSO. The cell viability was checked at various time points using Alamar blue and fluorescence readings were taken at excitation of 544 nm and emission of 590 nm.
(§2) PBMCs were stimulated with different stimulators as follows: • a. Cells were exposed to stimulator LPS at 100 ng/mL for 18 hrs to stimulate TNF-α, IL-6, IFN-γ, IL10, IL-1β • b. Cells were exposed to stimulator IFN-γ+LPS at 100 ng/mL+1 μg/mL for 18 hrs to stimulate IL-12 • c. Cells were exposed to stimulator PMA+Ionomycin at 50 ng/mL+1 μg/mL for 18 hrs to stimulate IL-23, IL-22, IL-17A, IL-17F
(§3) After 18 hrs supernatants were collected and centrifuged to remove any cell debris and aliquots were used for ELISA.

PDE5A = PDE5A (Homo sapiens, UniProt O76074); assay: Fluorescence polarization assay PDE5A; type: biochemical; settings: substrate cGMP
Protocol: (§4) An experiment to check inhibition of various subtypes of the target Phosphodiesterase (PDE) enzyme in in-vitro assay was performed. […] PDE1A, PDE2A, PDE4A, PDE4B, PDE4C, PDE4D, PDE5A, PDE7A, PDE9A, PDE10A.

Human IL-17A = assay: IL-17A release from stimulated PBMCs, ELISA; type: cell-based; settings: PMA+Ionomycin, 18 hrs
Protocol: as §1, §2, §3

PDE1A = PDE1A (Homo sapiens, UniProt P54750); assay: Fluorescence polarization assay PDE1A; type: biochemical; settings: substrate cGMP, Ca-CaM
Protocol: as §4

PDE7A = PDE7A (Homo sapiens, UniProt Q13946); assay: Fluorescence polarization assay PDE7A; type: biochemical; settings: substrate cAMP
Protocol: as §4

PDE4C = PDE4C (Homo sapiens, UniProt Q08493); assay: Fluorescence polarization assay PDE4C; type: biochemical; settings: substrate cAMP
Protocol: as §4

Human TNF-α = assay: TNF-α release from stimulated PBMCs, ELISA; type: cell-based; settings: LPS 100 ng/mL, 18 hrs
Protocol: as §1, §2, §3

PDE1 (Bovine brain) = assay: Radiolabeled enzyme assay PDE1; type: biochemical; settings: 1.01 μM [3H]cAMP+cAMP
Protocol: (§5) Enzyme assays have been optimized for incubation time, substrate concentration and method of end-product determination.

PDE5 (Human platelets) = biological target: T1, PDE5 (Human platelets) (Homo sapiens, UniProt O76074); assay: Radiolabeled enzyme assay PDE5; type: biochemical; settings: read-out: % inhibition at 30 μM, 1.01 μM [3H]cGMP+cGMP
T1 construct: PDE5 (Human platelets); from tissue; host or cells: human platelets
Protocol: as §5

PDE4 (Human U937 cells) = assay: Radiolabeled enzyme assay PDE4; type: biochemical; settings: 1.01 μM [3H]cAMP+cAMP
Protocol: as §5

PDE2 (Human platelets) = biological target: T2, PDE2 (Human platelets) (Homo sapiens, UniProt O00408); assay: Radiolabeled enzyme assay PDE2; type: biochemical; settings: read-out: % inhibition at 30 μM, 1.01 μM [3H]cAMP+cAMP
T2 construct: PDE2 (Human platelets); from tissue; host or cells: human platelets
Protocol: as §5

PDE3 (Human platelets) = biological target: T3, PDE3 (Human platelets) (Homo sapiens, UniProt Q14432); assay: Radiolabeled enzyme assay PDE3; type: biochemical; settings: read-out: % inhibition at 30 μM, 1.01 μM [3H]cAMP+cAMP
T3 construct: PDE3 (Human platelets); from tissue; host or cells: human platelets
Protocol: as §5

[1] = system: Imiquimod induced psoriasis in BALB/c mice; assay: Imiquimod induced psoriasis model in Balb/c mice; settings: for % inhibition of Ear inflamn. / Histopathology Scores Epidermal Thickness / Histopathology Scores Hyperkeratosis / Histopathology Scores Rete Peg Prolifern. / PASI score / Spleen weight / IL23 Levels (pg/ml): twice daily; for IL23 Levels (pg/ml): ear tissue lysate
Protocol: BALB/c mice (Sex: Female, Age: 7-8 Weeks) were used for induction of psoriasis using IMQ. Topical application of imiquimod (IMQ) in mice can induce and exacerbate psoriasis closely resembling human psoriasis. […] 3%, 4% and 5% and positive control of Tenovate (Clobetasol) 0.05% cream. In all 63 mg cream containing 5% of IMQ was applied to dorsal area (shaved back) and right ear for 8 days. Topical formulations from Example 7 were used during this experiment.
The parameters investigated were ear thickness change, % inhibition of ear inflammation, Psoriatic Area Severity Index (PASI). Histopathology was performed of right ear and dorsal skin by H & E staining. The biomarker in this study was inflammatory cytokine IL-23 analyzed by ELISA obtained from tissue lysate of ear region where IMQ and doses were applied.

Sequence of PDE1A (P54750 whole entry, species assumed): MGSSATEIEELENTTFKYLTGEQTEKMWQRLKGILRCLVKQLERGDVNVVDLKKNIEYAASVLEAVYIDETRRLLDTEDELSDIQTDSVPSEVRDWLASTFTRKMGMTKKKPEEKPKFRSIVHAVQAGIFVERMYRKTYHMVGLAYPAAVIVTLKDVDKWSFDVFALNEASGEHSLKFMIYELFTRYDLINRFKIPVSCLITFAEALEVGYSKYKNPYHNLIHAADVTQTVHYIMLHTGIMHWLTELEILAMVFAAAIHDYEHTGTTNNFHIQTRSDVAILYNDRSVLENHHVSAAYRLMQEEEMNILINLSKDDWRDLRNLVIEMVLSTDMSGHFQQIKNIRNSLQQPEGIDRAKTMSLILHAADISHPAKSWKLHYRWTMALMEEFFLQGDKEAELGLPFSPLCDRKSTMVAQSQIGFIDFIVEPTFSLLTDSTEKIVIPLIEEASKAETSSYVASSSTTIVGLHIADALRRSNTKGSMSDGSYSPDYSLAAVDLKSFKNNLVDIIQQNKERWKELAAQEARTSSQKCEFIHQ
Sequence of PDE4C (Q08493 whole entry, species assumed): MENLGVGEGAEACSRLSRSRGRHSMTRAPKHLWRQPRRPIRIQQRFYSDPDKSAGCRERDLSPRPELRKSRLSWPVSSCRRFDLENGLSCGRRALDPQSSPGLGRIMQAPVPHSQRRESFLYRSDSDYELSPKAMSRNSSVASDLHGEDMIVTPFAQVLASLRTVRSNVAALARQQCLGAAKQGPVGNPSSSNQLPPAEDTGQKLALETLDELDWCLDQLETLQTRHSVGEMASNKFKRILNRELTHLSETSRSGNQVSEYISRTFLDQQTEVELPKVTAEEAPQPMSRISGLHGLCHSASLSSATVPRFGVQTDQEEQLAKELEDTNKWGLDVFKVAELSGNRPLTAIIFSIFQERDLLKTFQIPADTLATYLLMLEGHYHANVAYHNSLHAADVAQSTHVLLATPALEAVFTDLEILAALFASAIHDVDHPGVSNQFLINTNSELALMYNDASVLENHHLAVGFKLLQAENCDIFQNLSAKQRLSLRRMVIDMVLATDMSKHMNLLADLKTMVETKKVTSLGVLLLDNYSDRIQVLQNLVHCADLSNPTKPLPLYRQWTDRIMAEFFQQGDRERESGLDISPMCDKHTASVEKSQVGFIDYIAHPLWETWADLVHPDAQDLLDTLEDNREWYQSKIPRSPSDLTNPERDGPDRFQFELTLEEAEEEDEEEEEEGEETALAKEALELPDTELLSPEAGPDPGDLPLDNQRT
Sequence of PDE7A (Q13946 whole entry, species assumed): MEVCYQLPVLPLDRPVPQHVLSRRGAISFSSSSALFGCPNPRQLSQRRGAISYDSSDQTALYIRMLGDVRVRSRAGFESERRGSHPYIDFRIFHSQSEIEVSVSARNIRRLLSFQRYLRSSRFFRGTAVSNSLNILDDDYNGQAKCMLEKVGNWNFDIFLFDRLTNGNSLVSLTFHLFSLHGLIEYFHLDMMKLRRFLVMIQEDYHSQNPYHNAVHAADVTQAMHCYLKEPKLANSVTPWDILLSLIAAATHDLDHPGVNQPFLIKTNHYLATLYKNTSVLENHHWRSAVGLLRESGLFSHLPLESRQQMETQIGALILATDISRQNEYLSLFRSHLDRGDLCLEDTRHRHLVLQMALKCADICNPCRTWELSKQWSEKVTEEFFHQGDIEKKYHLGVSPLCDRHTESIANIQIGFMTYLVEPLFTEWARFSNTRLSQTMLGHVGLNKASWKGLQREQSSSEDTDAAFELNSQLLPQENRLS
T3 sequence (Q14432 whole entry): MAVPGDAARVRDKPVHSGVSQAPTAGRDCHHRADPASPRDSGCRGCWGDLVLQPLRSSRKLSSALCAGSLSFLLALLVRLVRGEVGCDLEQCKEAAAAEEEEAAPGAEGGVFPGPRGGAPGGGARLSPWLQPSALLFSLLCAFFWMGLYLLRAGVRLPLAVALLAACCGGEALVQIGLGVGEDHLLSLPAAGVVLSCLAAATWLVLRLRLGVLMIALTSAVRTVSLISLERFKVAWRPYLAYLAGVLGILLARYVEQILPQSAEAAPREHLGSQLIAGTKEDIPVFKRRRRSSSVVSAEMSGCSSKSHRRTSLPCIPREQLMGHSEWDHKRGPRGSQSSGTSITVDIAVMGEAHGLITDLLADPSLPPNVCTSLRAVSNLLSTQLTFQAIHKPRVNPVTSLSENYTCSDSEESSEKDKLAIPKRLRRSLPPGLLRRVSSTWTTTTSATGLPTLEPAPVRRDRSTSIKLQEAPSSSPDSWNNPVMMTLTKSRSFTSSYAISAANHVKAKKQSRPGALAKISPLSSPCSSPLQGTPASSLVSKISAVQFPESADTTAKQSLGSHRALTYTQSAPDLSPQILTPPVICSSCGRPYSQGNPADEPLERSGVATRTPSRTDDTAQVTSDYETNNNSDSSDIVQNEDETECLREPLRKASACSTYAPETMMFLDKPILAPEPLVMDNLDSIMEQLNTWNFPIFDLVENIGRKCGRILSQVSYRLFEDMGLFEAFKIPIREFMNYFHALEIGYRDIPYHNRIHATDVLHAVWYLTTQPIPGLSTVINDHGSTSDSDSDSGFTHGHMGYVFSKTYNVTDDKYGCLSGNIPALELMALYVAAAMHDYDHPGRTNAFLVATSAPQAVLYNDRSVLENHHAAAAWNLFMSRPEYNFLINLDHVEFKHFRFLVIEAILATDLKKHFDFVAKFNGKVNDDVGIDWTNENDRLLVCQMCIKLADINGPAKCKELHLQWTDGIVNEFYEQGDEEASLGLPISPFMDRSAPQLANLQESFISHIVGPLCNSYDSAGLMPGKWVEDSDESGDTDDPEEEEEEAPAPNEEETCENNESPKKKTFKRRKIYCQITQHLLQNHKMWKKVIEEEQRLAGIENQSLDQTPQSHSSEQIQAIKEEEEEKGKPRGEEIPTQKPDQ
T2 sequence (O00408 whole entry): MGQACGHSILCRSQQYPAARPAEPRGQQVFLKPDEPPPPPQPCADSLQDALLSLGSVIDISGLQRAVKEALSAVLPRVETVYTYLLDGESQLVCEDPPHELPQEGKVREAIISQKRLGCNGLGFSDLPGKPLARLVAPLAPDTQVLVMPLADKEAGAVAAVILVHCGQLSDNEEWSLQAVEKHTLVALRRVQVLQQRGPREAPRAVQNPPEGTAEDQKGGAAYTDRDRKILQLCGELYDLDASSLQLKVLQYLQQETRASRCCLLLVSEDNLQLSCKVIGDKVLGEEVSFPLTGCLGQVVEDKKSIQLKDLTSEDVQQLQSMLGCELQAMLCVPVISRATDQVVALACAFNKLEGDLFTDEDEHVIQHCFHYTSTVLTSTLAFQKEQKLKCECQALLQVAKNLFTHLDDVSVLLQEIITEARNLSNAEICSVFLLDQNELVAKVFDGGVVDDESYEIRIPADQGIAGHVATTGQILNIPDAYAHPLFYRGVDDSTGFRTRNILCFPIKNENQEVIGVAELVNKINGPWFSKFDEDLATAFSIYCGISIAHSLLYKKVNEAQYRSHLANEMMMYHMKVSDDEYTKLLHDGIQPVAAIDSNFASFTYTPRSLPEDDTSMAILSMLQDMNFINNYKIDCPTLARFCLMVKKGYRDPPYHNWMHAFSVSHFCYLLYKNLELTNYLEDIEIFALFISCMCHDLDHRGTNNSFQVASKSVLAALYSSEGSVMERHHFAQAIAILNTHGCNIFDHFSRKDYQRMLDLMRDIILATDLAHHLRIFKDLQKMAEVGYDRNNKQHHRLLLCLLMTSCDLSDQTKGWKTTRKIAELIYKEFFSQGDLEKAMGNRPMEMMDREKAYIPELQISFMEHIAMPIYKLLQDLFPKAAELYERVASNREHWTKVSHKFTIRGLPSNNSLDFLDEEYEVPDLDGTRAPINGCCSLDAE

SMILES: O=C(Nc1ncc([N+](=O)[O-])s1)c1ccccc1O [Tizoxanide]
- Human IFN-γ concentration (Human IFN-γ; 1 μM): 204 pg/mL
- Human IFN-γ concentration (Human IFN-γ; 10 μM): 111 pg/mL
- Human IFN-γ concentration (Human IFN-γ; 25 μM): 139 pg/mL
- Human IFN-γ concentration (Human IFN-γ; 50 μM): 191 pg/mL
- IC50 (PDE5A): 136 µM
- Human IL-17A concentration (Human IL-17A; 1 μM): 39 pg/mL
- Human IL-17A concentration (Human IL-17A; 10 μM): 0 pg/mL
- Human IL-17A concentration (Human IL-17A; 25 μM): 0 pg/mL
- Human IL-17A concentration (Human IL-17A; 50 μM): 0 pg/mL
- IC50 (PDE1A): 96.1 µM
- IC50 (PDE7A): 134 µM
- IC50 (PDE4C): 366 µM
- Human TNF-α concentration (Human TNF-α; 1 μM): 5351 pg/mL
- Human TNF-α concentration (Human TNF-α; 10 μM): 3244 pg/mL
- Human TNF-α concentration (Human TNF-α; 25 μM): 3489 pg/mL
- Human TNF-α concentration (Human TNF-α; 50 μM): 2440 pg/mL

SMILES: CC(=O)Oc1ccccc1C(=O)Nc1ncc([N+](=O)[O-])s1 [Nitazoxanide]
- Human IFN-γ concentration (Human IFN-γ; 1 μM): 217 pg/mL
- Human IFN-γ concentration (Human IFN-γ; 25 μM): 152 pg/mL
- Human IFN-γ concentration (Human IFN-γ; 50 μM): 191 pg/mL
- % inhibition at 30 μM (PDE1 (Bovine brain)): 18%
- inhibition at 30 µM (PDE5 (Human platelets)): 9%
- Human IL-17A concentration (Human IL-17A; 1 μM): 39 pg/mL
- Human IL-17A concentration (Human IL-17A; 10 μM): 0 pg/mL
- Human IL-17A concentration (Human IL-17A; 25 μM): 0 pg/mL
- Human IL-17A concentration (Human IL-17A; 50 μM): 0 pg/mL
- % inhibition at 30 μM (PDE4 (Human U937 cells)): 89%
- inhibition at 30 µM (PDE2 (Human platelets)): 13%
- IC50 (PDE1A): 137 µM
- inhibition at 30 µM (PDE3 (Human platelets)): -4%
- % inhibition of Ear inflamn. ([1]; 3% topical): −5.9%
- Histopathology Scores Epidermal Thickness ([1]; 3% topical): 5.6 ± 0.4
- Histopathology Scores Hyperkeratosis ([1]; 3% topical): 1.0 ± 0.0^$
- Histopathology Scores Rete Peg Prolifern. ([1]; 3% topical): 1.2 ± 0.2
- PASI score ([1]; 3% topical): 14.2 ± 5.1
- Spleen weight ([1]; 3% topical, Day 9): 203.6 ± 22.6 mg
- IL23 Levels (pg/ml) ([1]; 3% topical): 147.79^# pg/ml
- % inhibition of Ear inflamn. ([1]; 4% topical): 26.1%
- Histopathology Scores Epidermal Thickness ([1]; 4% topical): 4.7 ± 0.3
- Histopathology Scores Hyperkeratosis ([1]; 4% topical): 1.3 ± 0.2
- Histopathology Scores Rete Peg Prolifern. ([1]; 4% topical): 1.0 ± 0.3
- PASI score ([1]; 4% topical): 21.5 ± 3.4
- Spleen weight ([1]; 4% topical, Day 9): 274.7 ± 54.3 mg
- IL23 Levels (pg/ml) ([1]; 4% topical): 128.67* pg/ml
- % inhibition of Ear inflamn. ([1]; 5% topical): 40.9%
- Histopathology Scores Epidermal Thickness ([1]; 5% topical): 5.3 ± 0.6
- Histopathology Scores Hyperkeratosis ([1]; 5% topical): 1.1 ± 0.1
- Histopathology Scores Rete Peg Prolifern. ([1]; 5% topical): 1.1 ± 0.1
- PASI score ([1]; 5% topical): 13.1 ± 1.6
- Spleen weight ([1]; 5% topical, Day 9): 204.1 ± 15.3 mg
- IL23 Levels (pg/ml) ([1]; 5% topical): 89.45* pg/ml
- Spleen weight vs disease control (in words) ([1]; Niclosamide 2%, Nitazoxanide 3% and 5%, Clobetasol 0.05%, Day 9): marginal reduction in spleen weight
- IL-23 level in ear tissue homogenates (in words) ([1]; different doses): reduction of IL-23 level
- Hyperkeratosis (in words) ([1]; ear lobe histopathology): significant reduction in Hyperkeratosis
- Human TNF-α concentration (Human TNF-α; 1 μM): 5708 pg/mL
- Human TNF-α concentration (Human TNF-α; 10 μM): 3472 pg/mL
- Human TNF-α concentration (Human TNF-α; 25 μM): 3679 pg/mL
- Human TNF-α concentration (Human TNF-α; 50 μM): 2896 pg/mL
